For the data set, the system named is AMO-1 xenografts. The experiment in a line: AMO-1 xenograft efficacy (tumor volume, body weight). Format: in vivo, mouse. Particulars: mice, 25 mg/kg on a Q7D × 2 schedule. The protocol:
All animal studies were conducted in accordance with the guidelines approved by the Institutional Animal Care and Use Committees of AbbVie. The research protocol was approved by In Vivo Pharmacology at AbbVie prior to study initiation but was not publicly registered or disclosed. Female C.B-17 SCID-beige mice (AMO-1, OPM-2, NCI-H929, and OCI-AML2 xenografts) and female NSG mice (MV4-11-Red.Fluc systemic) were purchased from Charles River Laboratories (Wilmington, MA). Animals were housed in a light cycle-controlled room with HEPA filtration at 22 °C. Animals had nesting and climbing cage topper as the primary environmental enrichment. Animals were inoculated subcutaneously in the right flank with 5 × 10^6 (AMO-1, OPM-2, NCI-H929, and OCI-AML2) or intravenous (IV) with 5 × 10^6 (MV4-11-Red.Fluc). The inoculation volume (0.2 mL) comprised a 50:50 mixture of cells in growth media and Matrigel (BD Biosciences) for subcutaneous injections and 100% phosphate-buffered saline for IV administration. All cell lines used in this publication were authenticated using IDEXX for STR profiling as well as their IMPACT and human IMPACT panels for pathogen screening. Electronic calipers were used to measure the length and width of each tumor 2 to 3 times per week. Tumor volume was estimated by applying the following equation: volume = length × width^2/2. All groups remained blinded during measurements and dosing; only veterinary staff were aware of group identity. When tumors reached approximately 200 mm^3, mice were randomized by match and distributed into treatment and control groups. All xenograft trials were conducted using 5 to 10 mice per group, and all mice were ear tagged and monitored individually throughout the studies. […] Tumor burden in the systemic MV4-11-Red.Fluc experiment was measured using an IVIS® spectrum from PerkinElmer by taking the total photon flux of the entire dorsal side of an individual mouse. […] A background control mouse that was tumor naive but received D-Luciferin was placed in the upper left corner of each image. The total flux from this animal was subtracted from the total flux of each animal present in the image.
For in vivo studies, maximal tumor growth inhibition (TGI) was calculated as the greatest treatment response using the following equation: Maximal TGI = (1 − mean tumor volume of the treated group/mean tumor volume of the vehicle control group) × 100. The tumor growth delay (TGD) percentage was determined as the percentage increase of the median time period for the treatment group to reach an arbitrary tumor volume of 1000 mm^3 relative to the vehicle control group. […] A power analysis was conducted using historical data to determine the number of animals required to yield significance of 0.05 at a 30% difference. […] Data from experiments in vivo were analyzed using the student’s t-test for TGI values and the Mann–Whitney U test for TGD using Excel and GraphPad Prism. Fisher’s exact test was used to probe significance of differences in response frequency.

Regarding `Cc1c(Cl)c2c(Cl)c(C)c1-c1c(-c3ccc(F)cc3)sc3ncnc(c13)O[C@@H](C(=O)O)Cc1cc(ccc1OCc1ccnc(-c3ccc(OC[C@H]4COCCO4)cc3)n1)OC[C@@H](CN1CCN(C)CC1)O2` [ABBV-467], the tolerability entry was “not well-tolerated”.

The record behind these values is PMC10600239, “Selective MCL-1 inhibitor ABBV-467 is efficacious in tumor models but is associated with cardiac troponin increases in patients” (Communications Medicine, 2023).
